From publication PMC9838390, “Discovery and biosynthesis of karnamicins as angiotensin converting enzyme inhibitors” (Nature Communications, 2023)
Values joined by “and” are separate entries in the source; they are usually repeats but may differ in a detail not shown here. Equal values may be shown once.

What was measured:
KnmB1 [1] = assay: Hydrogen peroxide formation assay of KnmB1 and variants; format: biochemical, L. rhizosphaerae NEAU-A2; settings: 30 °C, average of 3
Experimental: Hydrogen peroxide formation assay and NADPH oxidation
The hydrogen peroxide formed from KnmB1, KnmB2 and their variants were measured using the Hydrogen Peroxide Assay Kit (Beyotime Industrial Co. Ltd, Shanghai, China)4-5. 5–100 µL of enzyme reaction mixture was added to 100 µL of working reagent (S0038-1). The mixture was incubated for 30 min at 25 °C, at which time the absorbance at 560 nm was measured by NanoDrop 2000c (Fisher Scientific). […]
(§1) Spectral data for new compounds […]
Supplementary Figure 131. H2O2 generation and NADPH oxidation for KnmB2, KnmB1 and their variants. (a) Hydrogen peroxide formation of KnmB2 and variants. […]
(b) Hydrogen peroxide formation of KnmB1 and variants. Reaction conditions: 100 µL system containing 50 mM Tris-HCl buffer (pH 7.5), 1 mM NADPH, 16 μM KnmB2, 17 μM KnmB1 or variants, 0.1 mM compound 24,1 mM SAM, and 2 […]
(1 picture or pasted object on this page, not shown here) […]
μM KnmF at 30 °C for 3h. (c) Hydrogen peroxide formation of KnmB1 and variants.
Reaction conditions: 100µL system containing 50 mM Tris-HCl buffer (pH 7.5), 0.3 mM NADPH, and 6 μM KnmB1 or variants, or 0.1 mM 24 at 30 °C for 30 min. […]
(§2) 2 μM KnmB2 or variants, or 0.1 mM substrate 24/32. […]
(§3) Source data are provided as a Source Data file. […]

KnmB1 [2] = assay: NADPH oxidation of KnmB1 and variants (340 nm); format: biochemical, L. rhizosphaerae NEAU-A2
Experimental: Hydrogen peroxide formation assay and NADPH oxidation […]
NADPH detection was carried out in the cuvette by NanoDrop 2000c (Fisher Scientific). NADPH signal at 340 nm was monitored in time using 6220 M–1 cm–1 as […]
as §1
Reaction conditions: 50 mM Tris-HCl buffer (pH 7.5), 0.15 mM NADPH, and 2 μM KnmB1 or KnmB2. (e) NADPH oxidation of KnmB1 and variants. (f) NADPH oxidation of KnmB1 in the presence 24/32/36. (g) NADPH oxidation of KnmB1 and variants in the presence 24. Reaction conditions (e-g) for KnmB1 and their variants: 50 mM Tris-HCl buffer (pH 7.5), 0.15 mM NADPH, and 6 μM KnmB1 or variants, or 0.1 mM substrate 24/32/36. […]
as §2, §3

SMILES: CC(C)CCCCc1nc(-c2cc(O)cc(C(N)=O)n2)cs1 [Compound 24]
- hydrogen peroxide formation of KnmB1 (absorbance UV λ=560 nm), average value (KnmB1 [1]; Fig. S131b, 1 mM NADPH, 17 μM KnmB1, 0.1 mM compound, 3 h): 0.5214
- hydrogen peroxide formation of KnmB1 (absorbance UV λ=560 nm), average value (KnmB1 [1]; Fig. S131c, 0.3 mM NADPH, 6 μM KnmB1, 0.1 mM compound, 30 min): 1.0442
- effector action on reduction of flavin in KnmB1 by NADPH (KnmB1 [2]; 0.15 mM NADPH, 6 μM KnmB1, 0.1 mM compound (Fig. S131f)): could act as a non-substrate effector
- NADPH oxidation of KnmB1 in the presence of compound (replicates 1, 2, 3) (KnmB1 [2]; Time 0): 0.0000 µM
- NADPH oxidation of KnmB1 in the presence of compound, average value (KnmB1 [2]; Time 0): 0.0000 µM
- NADPH oxidation of KnmB1 in the presence of compound (replicates 1, 2, 3) (KnmB1 [2]; Time 1): 2.9582 µM and 2.2830 µM and 2.5080 µM
- NADPH oxidation of KnmB1 in the presence of compound, average value (KnmB1 [2]; Time 1): 2.5831 µM
- NADPH oxidation of KnmB1 in the presence of compound (replicates 1, 2, 3) (KnmB1 [2]; Time 2): 6.8489 µM and 4.6945 µM and 5.9164 µM
- NADPH oxidation of KnmB1 in the presence of compound, average value (KnmB1 [2]; Time 2): 5.8199 µM
- NADPH oxidation of KnmB1 in the presence of compound (replicates 1, 2, 3) (KnmB1 [2]; Time 3): 8.2797 µM and 6.4309 µM and 6.4630 µM
- NADPH oxidation of KnmB1 in the presence of compound, average value (KnmB1 [2]; Time 3): 7.0579 µM
- NADPH oxidation of KnmB1 in the presence of compound (replicates 1, 2, 3) (KnmB1 [2]; Time 4): 9.7106 µM and 8.7942 µM and 8.6174 µM
- NADPH oxidation of KnmB1 in the presence of compound, average value (KnmB1 [2]; Time 4): 9.0407 µM
- NADPH oxidation of KnmB1 in the presence of compound (replicates 1, 2, 3) (KnmB1 [2]; Time 5): 11.9293 µM and 10.4662 µM and 10.1447 µM
- NADPH oxidation of KnmB1 in the presence of compound, average value (KnmB1 [2]; Time 5): 10.8467 µM
- NADPH oxidation of KnmB1 in the presence of compound (replicates 1, 2, 3) (KnmB1 [2]; Time 8): 16.3826 µM and 16.8650 µM and 14.9839 µM
- NADPH oxidation of KnmB1 in the presence of compound, average value (KnmB1 [2]; Time 8): 16.0772 µM
- NADPH oxidation of KnmB1 in the presence of compound (replicates 1, 2, 3) (KnmB1 [2]; Time 10): 19.9679 µM and 20.5788 µM and 17.6688 µM
- NADPH oxidation of KnmB1 in the presence of compound, average value (KnmB1 [2]; Time 10): 19.4051 µM
- NADPH oxidation of KnmB1 in the presence of compound (replicates 1, 2, 3) (KnmB1 [2]; Time 15): 26.9614 µM and 30.3537 µM and 23.0064 µM
- NADPH oxidation of KnmB1 in the presence of compound, average value (KnmB1 [2]; Time 15): 26.7739 µM
- NADPH oxidation of KnmB1 in the presence of compound (replicates 1, 2, 3) (KnmB1 [2]; Time 20): 35.3859 µM and 38.9550 µM and 30.1286 µM
- NADPH oxidation of KnmB1 in the presence of compound, average value (KnmB1 [2]; Time 20): 34.8232 µM
- NADPH oxidation of KnmB1 in the presence of compound (replicates 1, 2, 3) (KnmB1 [2]; Time 30): 48.2476 µM and 54.0515 µM and 41.3344 µM
- NADPH oxidation of KnmB1 in the presence of compound, average value (KnmB1 [2]; Time 30): 47.8778 µM
- NADPH oxidation of KnmB1 in the presence of compound (replicates 1, 2, 3) (KnmB1 [2]; Time 40): 59.6785 µM and 66.9936 µM and 50.7878 µM
- NADPH oxidation of KnmB1 in the presence of compound, average value (KnmB1 [2]; Time 40): 59.1533 µM
- NADPH oxidation of KnmB1 in the presence of compound (replicates 1, 2, 3) (KnmB1 [2]; Time 60): 78.3119 µM and 86.3505 µM and 66.4309 µM
- NADPH oxidation of KnmB1 in the presence of compound, average value (KnmB1 [2]; Time 60): 77.0311 µM
